Reference: US20260284043A1, “COMPOUNDS FOR UPREGULATING UTROPHIN LEVELS IN MUSCLE CELLS AND METHOD OF APPLICATION THEREOF” (Peptris Technologies Private Limited, priority 2023, published 2026)

Experiments:
Utrophin = Utrophin upregulation (mRNA fold change, RT-PCR) in differentiated C2C12 myoblast cells; type: cell-based, mouse; conditions: 24 hours; for fold change of utrophin: C2C12 myoblast cells differentiated seven days, 10 μM, FIG. 1
Procedure: C2C12 myoblast cells are seeded in the well plate with a growth medium (10% FBS and DMEM). After they reached 70% confluence, the cells are added to the differentiation medium (2% HS and DMEM) and differentiated for seven days. Stock solutions are prepared for Sitagliptin and other DPP-IV inhibitors viz., Melogliptin, Linagliptin, Vildagliptin, and Teneligliptin in DMSO. The cells are treated with a final concentration of 10 μM stock solution for 24 hours. RNA isolation is carried out using the Qiagen assay kit and quantified using NanodropRT-PCR for Utrophin Upregulation.
Using the same protocol for Example 1, C2C 12 myoblast cells are treated with sitagliptin for 24 hours. Ezutromid is a known utrophin up-regulator and used as a positive control. RNA isolation and RT-PCR are done to quantify the fold change in utrophin mRNA expression. FIG. 2 presents the fold change in mRNA expression of Utrophin on C2C12 mouse skeletal muscle myoblasts at 10 uM sitagliptin compared to 10 uM Ezutromid.

D2.mdx mice [1] = experiment: Treadmill test in D2.mdx mice; type: in vivo, mouse; conditions: 50 mg/kg p.o. q.d., 28 days, vs DMD-Control
Procedure: (§1) All the functional experimental parameters are evaluated in mdx background wild-type mice and in D2.mdx mice (D2.B10-DMD mdx/J mice procured from Jackson laboratories (Strain #013141), Bar Harbor, Maine (ME), USA 04609. The test item, Sitagliptin 50 mg/kg, is orally (p.o.) administered once daily (q.d.) at a dose volume of 10 mL/kg. Sitagliptin suspended in formulation containing 0.1% Tween 20 and 0.5% Carboxymethyl cellulose (CMC) is administered once daily for 28 days via the oral route. The wild-type control and mdx control groups received the vehicle (0.5% Carboxy methyl cellulose (CMC) containing 0.1% Tween 20) alone. Body weight of the study animals is recorded before the study (pre-dose) and twice weekly/daily throughout the study. Animals are also monitored for clinical signs, mortality, and morbidity. […] Muscle function is assessed through grip strength test using a Grip strength meter (Orchid Scientific, Model No.: […], India), hanging test, treadmill running, and rotarod test (Orchid Scientific, India) in response to Vehicle and Sitagliptin (50 mg/kg, p.o.) treatments. […] The efficacy of Sitagliptin is evaluated by comparing the functional test parameters and serum CK levels of the treated group with that of the mdx-control group in comparison to the basal value of Wild-type group. […]

D2.mdx mice [2] = experiment: Hanging test in D2.mdx mice; type: in vivo, mouse; conditions: 50 mg/kg p.o. q.d., irrespective of treadmill stress, compared with wild type mice, FIGS. 6A and 6B
Procedure: as §1

D2.mdx mice [3] = experiment: Serum Creatinine Kinase level in D2.mdx mice after treadmill test; type: in vivo, mouse; conditions: 50 mg/kg p.o. q.d., 28 days, measured within 30 minutes after treadmill test, FIG. 8
Procedure: All the functional experimental parameters are evaluated in mdx background wild-type mice and in D2.mdx mice (D2.B10-DMD mdx/J mice procured from Jackson laboratories (Strain #013141), Bar Harbor, Maine (ME), USA 04609. The test item, Sitagliptin 50 mg/kg, is orally (p.o.) administered once daily (q.d.) at a dose volume of 10 mL/kg. Sitagliptin suspended in formulation containing 0.1% Tween 20 and 0.5% Carboxymethyl cellulose (CMC) is administered once daily for 28 days via the oral route. The wild-type control and mdx control groups received the vehicle (0.5% Carboxy methyl cellulose (CMC) containing 0.1% Tween 20) alone. […] All three group mice (Wild-type, DMD-Control & DMD-Sitagliptin) underwent functional tests at week 0 (Basal-Day 0), week 2 (Day 14) and at the end of the study (week 4 or Day 28). […] Blood samples are collected for Creatine kinase (CK) analysis 30 min after Treadmill functional test on Day 0, 14 & Day 28. The efficacy of Sitagliptin is evaluated by comparing the functional test parameters and serum CK levels of the treated group with that of the mdx-control group in comparison to the basal value of Wild-type group. […] Treadmill, grip strength, hanging, rotarod, and creatine kinase tests are recorded on day 0, day 14 and day 28. […] Serum Creatinine Kinase level is measured within 30 minutes after the mice are subjected to Treadmill tests.

D2.mdx mice [4] = experiment: Grip strength test in D2.mdx mice; type: in vivo, mouse; conditions: 50 mg/kg p.o. q.d., before treadmill stress, compared with wild type mice, FIG. 5A
Procedure: as §1

D2.mdx mice [5] = experiment: 28th day summary of functional tests in D2.mdx mouse models; type: in vivo; conditions: 50 mg/kg p.o. q.d., day 28, vs DMD disease control mice, FIG. 9A-9F
Procedure: as §1

D2.mdx mice [6] = experiment: Rotarod test in D2.mdx mice; type: in vivo, mouse; conditions: 50 mg/kg p.o. q.d., 28 days, FIG. 7
Procedure: as §1

`N#C[C@@H]1C[C@H](F)CN1C(=O)CN[C@@H]1CC[C@H](Cn2cncn2)C1` [Melogliptin, (2S,4S)-4-fluoro-1-[2-[[(1R,3S)-3-(1,2,4-triazol-1-ylmethyl)cyclopentyl]amino]acetyl]pyrrolidine-2 carbonitrile] was tested, and the “fold change of utrophin” value (Utrophin) was “capable of upregulating utrophin levels”.

With `N[C@@H](CC(=O)N1CCn2c(nnc2C(F)(F)F)C1)Cc1cc(F)c(F)cc1F` [Sitagliptin, (R)-4-oxo-4-[3-(trifluoromethyl)-5,6-dihydro[1,2,4]triazolo[4,3-a]pyrazin-7(8H)-yl]-1-(2,4,5-trifluorophenyl)butan-2-amine] the “distance travelled in 30 mins (treadmill)” value (D2.mdx mice [1]; FIG. 4A) was “significant and sustained improvement”, the “time to exhaust (treadmill)” value (D2.mdx mice [1]; FIG. 4B) was “significant and sustained improvement” and the “hanging latency pre- and post-treadmill” value (D2.mdx mice [2]) was “perform comparably with wild type mice”. For the same compound, the “Serum Creatinine Kinase levels” value (D2.mdx mice [3]) was “significant reductions”, the “normalized grip strength pre-treadmill” value (D2.mdx mice [4]) was “could grip as well as the wild type mice” and the “fold change in mRNA expression of Utrophin compared to Ezutromid” value (Utrophin; C2C12 mouse skeletal muscle myoblasts, 10 uM sitagliptin vs 10 uM Ezutromid (positive control), FIG. 2) was “superior upregulation of utrophin compared Ezutromid”. For the same compound, the “fold change of utrophin” value (Utrophin) was “capable of upregulating utrophin levels”, the “all functional parameters (distance travelled, time to exhaust, grip strength, hanging test), 28th day summary” value (D2.mdx mice [5]) was “robust improvement in all the functional parameters” and the “latency to fall (rotarod)” value (D2.mdx mice [6]) was “sustained improvements in overall muscle coordination”.

In the case of `Cc1cc(N2CCN([C@@H]3CN[C@H](C(=O)N4CCSC4)C3)CC2)n(-c2ccccc2)n1` [Teneligliptin, {(2S,4S)-4-[4-(3-Methyl-1-phenyl-1H-pyrazol-5-yl)-1-piperazinyl]-2-pyrrolidinyl}(1,3-thiazolidin-3-yl)methanone], the “fold change of utrophin” value (Utrophin) is reported as “capable of upregulating utrophin levels”.

With `N#C[C@@H]1CCCN1C(=O)CNC12CC3CC(CC(O)(C3)C1)C2` [Vildagliptin, (S)-1-[2-(3-Hydroxyadamantan-1-ylamino)acetyl]pyrrolidine-2-carbonitrile] the “fold change of utrophin” value (Utrophin) was “capable of upregulating utrophin levels”.

For `CC#CCn1c(N2CCC[C@@H](N)C2)nc2c1c(=O)n(Cc1nc(C)c3ccccc3n1)c(=O)n2C` [Linagliptin, 8-[(3R)-3-Aminopiperidin-1-yl]-7-(but-2-yn-1-yl)-3-methyl-1-[(4-methylquinazolin-2-yl)methyl]-3,7-dihydro-1H-purine-2,6-dione], the “fold change of utrophin” value (Utrophin) was “capable of upregulating utrophin levels”.
